From patent US7169816B2, “4-bromo or 4-iodo phenylamino benzhydroxamic acid derivatives and their use as MEK inhibitors” (Warner-Lambert Company, priority 1997, dated 2007)
Like-named read-outs stand apart in the source and are kept apart here.

Key:
[1] = target: p45MEK (GST-MEK) (Homo sapiens, UniProt Q02750); assay: Cascade assay for inhibitors of the MAP kinase pathway (in vitro); assay type: biochemical
Method: Incorporation of ^32P into myelin basic protein (MBP) was assayed in the presence of a glutathione S-transferase fusion protein containing p44MAP kinase (GST-MAPK) and a glutathione S-transferase fusion protein containing p45MEK (GST-MEK). The assay solution contained 20 mM HEPES, pH 7.4, 10 mM MgCl2, 1 mM MnCl2, 1 mM EGTA, 50 μM [γ-^32P]ATP, 10 μg GST-MEK, 0.5 μg GST-MAPK and 40 μg MBP in a final volume of 100 μL. […] Compounds were assessed at 10 μM for ability to inhibit incorporation of ^32P.
To ascertain whether compounds were inhibiting GST-MEK or GST MAPK, two additional protocols were employed. In the first protocol, compounds were added to tubes containing GST-MEK, followed by addition of GST-MAPK, MBP and [γ-^32P]ATP. In the second protocol, compounds were added to tubes containing both GST-MEK and GST-MAPK, followed by MBP and [γ-^32P]ATP.

[2] = tested on: activation of MAP kinase in whole cells; assay: Whole cell MAP kinase assay (in vivo, cell culture); assay type: cell-based
Method: To determine if compounds were able to block activation of MAP kinase in whole cells, the following protocol was used: Cells were plated in multi-well plates and grown to confluence. Cells were then serum-deprived overnight. Cells were exposed to the desired concentrations of compound or vehicle (DMSO) for 30 minutes, followed by addition of a growth factor, eg, PDGF (100 ng/mL). After a 5-minute treatment with the growth factor, cells were washed with PBS, then lysed in a buffer consisting of 70 mM NaCl, 10 mM HEPES (pH 7.4), 50 mM glycerol phosphate, and 1% Triton X-100. Lysates were clarified by centrifugation at 13,000×g for 10 minutes. Five micrograms of the resulting supernatants were incubated with 10 μg microtubule associated protein-2 (Map2) for 15 minutes at 30° C. in a final volume of 25 μL containing 50 mM Tris (pH 7.4), 10 mM MgCl2, 2 mM EGTA and 30 μM [γ-^32P]ATP. Reactions were terminated by addition of Laemmli sample buffer. Phosphorylated Map2 was resolved on 7.5% acrylamide gels and incorporated radioactivity determined by autoradiography and subsequent excision of the bands followed by scintillation counting.

**Q.** What does the source list for Cc1cc(I)ccc1Nc1c(C(=O)NOCC2CCC2)cc(Br)c(F)c1F [Example 102, 5-Bromo-N-cyclobutylmethoxy-3,4-difluoro-2-(4-iodo-2-methyl-phenylamino)-benzamide]?
**A.** IC50 [1]: 4 nM; IC50 [2]: 200 nM

**Q.** For Cc1cc(I)ccc1Nc1cc(F)ccc1C(=O)NO [Example 1, 4-Fluoro-N-hydroxy-2-(4-iodo-2-methyl-phenylamino)-benzamide], which IC50 [1] is on record?
**A.** 7 nM

**Q.** What about the melting point of the same molecule?
**A.** 61 to 75 °C

**Q.** Which results are given for Cc1cc(I)ccc1Nc1c(C(=O)NOCC2CCCCC2)cc(Br)c(F)c1F [Example 100, 5-Bromo-N-cyclohexylmethoxy-3,4-difluoro-2-(4-iodo-2-methyl-phenylamino)-benzamide]?
**A.** IC50 [1]: 26 nM; IC50 [2]: > 1000 nM

**Q.** With O=C(NOCC1CCC1)c1ccc(F)c(F)c1Nc1ccc(I)cc1Cl [Example 89, 3,4-Difluoro-2-(2-chloro-4-iodo-phenylamino)-N-cyclobutylmethoxy-benzamide] as the molecule, how does the IC50 [1] read?
**A.** 5 nM

**Q.** What about the IC50 [2] of the same molecule?
**A.** 300 nM

**Q.** What does the source list for “5-Bromo-N-cyclopropylmethoxy-3,4-difluoro-2-(4-iodo-2-methyl-phenylamino) [Example 58]”?
**A.** IC50 [1]: 18 nM; IC50 ([2]; cell culture): 14 nM

**Q.** With Cc1cc(I)ccc1Nc1c(C(=O)NOCC(C)C)cc(Br)c(F)c1F [Example 99, 5-Bromo-3,4-difluoro-2-(4-iodo-2-methyl-phenylamino)-N-isobutoxy-benzamide] as the molecule, how does the IC50 [1] read?
**A.** 18 nM

**Q.** What about the IC50 [2] of the same molecule?
**A.** 500 nM

**Q.** For O=C(NO)c1cc(Br)c(F)c(F)c1Nc1ccc(I)cc1Cl [Example 93, 5-Bromo-2-(2-chloro-4-iodo-phenylamino)-3,4-difluoro-N-hydroxy-benzamide], which IC50 [1] is on record?
**A.** 10 nM

**Q.** And the IC50 [2]?
**A.** 50 nM

**Q.** Which IC50 [1] does the source give for Cc1cc(I)ccc1Nc1c(C(=O)NO)cc(Br)c(F)c1F [Example 2, 5-Bromo-3,4-difluoro-N-hydroxy-2-(4-iodo-2-methyl-phenylamino)-benzamide] here?
**A.** 3 nM

**Q.** What about the melting point of the same molecule?
**A.** 80 to 90 °C
